Measurements: ChEMBL document CHEMBL1629620 (Antimicrob Agents Chemother, 2009)

Legend:
HFF = assay: Antiproliferative activity against HFF after 3 days by coulter counter assay; format: cell-based; conditions: Homo sapiens, 72 h
[1] = Cytotoxicity against HFF after 7 days by neutral red uptake assay; format: cell-based; conditions: human, HFF cells
Vaccinia virus [2] = assay: Antiviral activity against Vaccinia virus Copenhagen infected in HFF assessed as reduction of plaque formation after 3 days; format: functional, organism-based; conditions: Orthopoxvirus vaccinia, 72 h
Vaccinia virus [3] = assay: Ratio of compound EC50 to cidofovir EC50 for Vaccinia virus WR; format: functional, Orthopoxvirus vaccinia
Cowpox virus [4] = assay: Ratio of compound EC50 to cidofovir EC50 for Cowpox virus Brighton; format: functional
Cowpox virus [5] = assay: Antiviral activity against Cowpox virus Brighton infected in HFF assessed as reduction of plaque formation after 3 days; format: functional, organism-based; conditions: 72 h
Vaccinia virus [6] = assay: Ratio of compound EC50 to cidofovir EC50 for Vaccinia virus Copenhagen; format: functional, Orthopoxvirus vaccinia
Vaccinia virus [7] = assay: Antiviral activity against Vaccinia virus WR infected in HFF assessed as reduction of plaque formation after 3 days; format: functional, organism-based; conditions: Orthopoxvirus vaccinia, 72 h
Vaccinia virus [8] = assay: Antiviral activity against Vaccinia virus WR infected in HFF assessed as inhibition of DNA synthesis after 24 hrs by PCR analysis; format: functional, organism-based; conditions: Orthopoxvirus vaccinia
Vaccinia virus [9] = assay: Antiviral activity against Vaccinia virus WR infected in BALB/c mouse assessed as uncured animal at 15 mg/kg, ip qd for 5 days administered 24 hrs after infection relative to control; format: functional, Orthopoxvirus vaccinia; conditions: route intraperitoneal
Cowpox virus [10] = assay: Antiviral activity against Cowpox virus Brighton infected in BALB/c mouse assessed as day of death at 15 mg/kg, ip qd for 5 days administered 8 days after infection; format: functional; conditions: route intraperitoneal
Cowpox virus [11] = assay: Antiviral activity against Cowpox virus Brighton infected in BALB/c mouse assessed as uncured animal at 15 mg/kg, ip qd for 5 days administered 8 days after infection relative to control; format: functional; conditions: route intraperitoneal
Cowpox virus [12] = assay: Antiviral activity against Cowpox virus Brighton infected in BALB/c mouse assessed as uncured animal at 15 mg/kg, ip qd for 5 days administered 5 days after infection relative to control; format: functional; conditions: route intraperitoneal
Cowpox virus [13] = assay: Antiviral activity against Cowpox virus Brighton infected in BALB/c mouse assessed as uncured animal at 15 mg/kg, ip qd for 5 days administered 24 hrs after infection relative to control; format: functional; conditions: route intraperitoneal
Cowpox virus [14] = assay: Antiviral activity against Cowpox virus Brighton infected in BALB/c mouse assessed as uncured animal at 15 mg/kg, ip qd for 5 days administered 2 days after infection relative to control; format: functional; conditions: route intraperitoneal
Cowpox virus [15] = assay: Antiviral activity against Cowpox virus Brighton infected in BALB/c mouse assessed as uncured animal at 15 mg/kg, ip qd for 5 days administered 3 days after infection relative to control; format: functional; conditions: route intraperitoneal
Cowpox virus [16] = assay: Antiviral activity against Cowpox virus Brighton infected in BALB/c mouse assessed as uncured animal at 15 mg/kg, ip qd for 5 days administered 4 days after infection relative to control; format: functional; conditions: route intraperitoneal
Cowpox virus [17] = assay: Antiviral activity against Cowpox virus Brighton infected in BALB/c mouse assessed as day of death at 15 mg/kg, ip qd for 5 days administered 5 days after infection; format: functional; conditions: route intraperitoneal
Cowpox virus [18] = assay: Antiviral activity against Cowpox virus Brighton infected in BALB/c mouse assessed as uncured animal at 1.5 mg/kg, ip bid for 5 days administered 24 hrs after infection relative to control; format: functional; conditions: route intraperitoneal
Cowpox virus [19] = assay: Antiviral activity against Cowpox virus Brighton infected in BALB/c mouse assessed as day of death at 5 mg/kg, po bid for 5 days administered 2 days after infection; format: functional
Cowpox virus [20] = assay: Antiviral activity against Cowpox virus Brighton infected in BALB/c mouse assessed as uncured animal at 1.5 mg/kg, po bid for 5 days administered 24 hrs after infection relative to control; format: functional
Cowpox virus [21] = assay: Antiviral activity against Cowpox virus Brighton infected in BALB/c mouse assessed as uncured animal at 15 mg/kg, po bid for 5 days administered 2 days after infection relative to control; format: functional
Vaccinia virus [22] = assay: Antiviral activity against Vaccinia virus WR infected in BALB/c mouse assessed as uncured animal at 50 mg/kg, ip bid for 5 days administered 24 hrs after infection relative to control; format: functional, Orthopoxvirus vaccinia; conditions: route intraperitoneal
Cowpox virus [23] = assay: Antiviral activity against Cowpox virus Brighton infected in BALB/c mouse assessed as day of death at 5 mg/kg, po bid for 5 days administered 5 days after infection; format: functional
Cowpox virus [24] = assay: Antiviral activity against Cowpox virus Brighton infected in BALB/c mouse assessed as uncured animal at 1.5 mg/kg, po bid for 5 days administered 3 days after infection relative to control; format: functional
Cowpox virus [25] = assay: Antiviral activity against Cowpox virus Brighton infected in BALB/c mouse assessed as day of death at 5 mg/kg, po bid for 5 days administered 8 days after infection; format: functional
Vaccinia virus [26] = assay: Antiviral activity against Vaccinia virus WR infected in BALB/c mouse assessed as uncured animal at 5 mg/kg, ip bid for 5 days administered 24 hrs after infection relative to control; format: functional, Orthopoxvirus vaccinia; conditions: route intraperitoneal
Cowpox virus [27] = assay: Antiviral activity against Cowpox virus Brighton infected in BALB/c mouse assessed as uncured animal at 5 mg/kg, ip bid for 5 days administered 24 hrs after infection relative to control; format: functional; conditions: route intraperitoneal
Cowpox virus [28] = assay: Antiviral activity against Cowpox virus Brighton infected in BALB/c mouse assessed as day of death at 1.5 mg/kg, po bid for 5 days administered 3 days after infection; format: functional
Cowpox virus [29] = assay: Antiviral activity against Cowpox virus Brighton infected in BALB/c mouse assessed as uncured animal at 15 mg/kg, po bid for 5 days administered 3 days after infection relative to control; format: functional
Cowpox virus [30] = assay: Antiviral activity against Cowpox virus Brighton infected in BALB/c mouse assessed as uncured animal at 5 mg/kg, po bid for 5 days administered 4 days after infection relative to control; format: functional
Vaccinia virus [31] = assay: Antiviral activity against Vaccinia virus WR infected in BALB/c mouse assessed as day of death at 15 mg/kg, ip bid for 5 days administered 24 hrs after infection; format: functional, Orthopoxvirus vaccinia; conditions: route intraperitoneal
Cowpox virus [32] = assay: Antiviral activity against Cowpox virus Brighton infected in BALB/c mouse assessed as day of death at 15 mg/kg, po bid for 5 days administered 3 days after infection; format: functional
Cowpox virus [33] = assay: Antiviral activity against Cowpox virus Brighton infected in BALB/c mouse assessed as uncured animal at 5 mg/kg, po bid for 5 days administered 2 days after infection relative to control; format: functional
Cowpox virus [34] = assay: Antiviral activity against Cowpox virus Brighton infected in BALB/c mouse assessed as uncured animal at 5 mg/kg, po bid for 5 days administered 3 days after infection relative to control; format: functional
Cowpox virus [35] = assay: Antiviral activity against Cowpox virus Brighton infected in BALB/c mouse assessed as day of death at 5 mg/kg, po bid for 5 days administered 4 days after infection; format: functional
Cowpox virus [36] = assay: Antiviral activity against Cowpox virus Brighton infected in BALB/c mouse assessed as uncured animal at 15 mg/kg, po bid for 5 days administered 24 hrs after infection relative to control; format: functional
Cowpox virus [37] = assay: Antiviral activity against Cowpox virus Brighton infected in BALB/c mouse assessed as uncured animal at 5 mg/kg, po bid for 5 days administered 8 days after infection relative to control; format: functional
Cowpox virus [38] = assay: Antiviral activity against Cowpox virus Brighton infected in BALB/c mouse assessed as uncured animal at 5 mg/kg, po bid for 5 days administered 5 days after infection relative to control; format: functional
Cowpox virus [39] = assay: Antiviral activity against Cowpox virus Brighton infected in BALB/c mouse assessed as uncured animal at 5 mg/kg, po bid for 5 days administered 24 hrs after infection relative to control; format: functional
Vaccinia virus [40] = assay: Antiviral activity against Vaccinia virus WR infected in BALB/c mouse assessed as uncured animal at 15 mg/kg, ip bid for 5 days administered 24 hrs after infection relative to control; format: functional, Orthopoxvirus vaccinia; conditions: route intraperitoneal
Cowpox virus [41] = assay: Antiviral activity against Cowpox virus Brighton infected in BALB/c mouse assessed as day of death at 15 mg/kg, po bid for 5 days administered 2 days after infection; format: functional
Cowpox virus [42] = assay: Antiviral activity against Cowpox virus Brighton infected in BALB/c mouse assessed as uncured animal at 1.5 mg/kg, po bid for 5 days administered 2 days after infection relative to control; format: functional

Nc1ccn([C@@H]2S[C@H](CO)[C@@H](O)[C@@H]2O)c(=O)n1 [THIARABINE]
IC50 (HFF): 1000 nM | CC50 at 168 h [1]: > 88 µM | EC50 (Vaccinia virus [2]): 300 nM | Ratio EC50 (Vaccinia virus [3]): 20 | Ratio EC50 (Cowpox virus [4]): 20 | EC50 (Cowpox virus [5]): 1600 nM | Ratio EC50 (Vaccinia virus [6]): 20

Cc1cn([C@H]2C[C@H](O)[C@@H](CO)S2)c(=O)[nH]c1=O [4'-THIOTHYMIDINE]
IC50 (HFF): < 30 nM | CC50 at 168 h [1]: > 100 µM | EC50 (Vaccinia virus [2]): 30 nM | Ratio EC50 (Vaccinia virus [3]): 20 | Ratio EC50 (Cowpox virus [4]): 20 | EC50 (Cowpox virus [5]): 20 nM | Ratio EC50 (Vaccinia virus [6]): 20

O=C(NN1C(=O)[C@@H]2[C@@H]3C=C[C@@H]([C@H]4C[C@@H]34)[C@@H]2C1=O)c1ccc(C(F)(F)F)cc1 [TECOVIRIMAT]
EC50 (Vaccinia virus [7]): 70 nM | EC50 (Vaccinia virus [8]): > 100 µM

Nc1nc(=O)n([C@@H]2S[C@H](CO)[C@@H](O)[C@@H]2O)cc1F
IC50 (HFF): < 30 nM | CC50 at 168 h [1]: > 100 µM | EC50 (Vaccinia virus [2]): 100 nM | Ratio EC50 (Vaccinia virus [3]): 20 | Ratio EC50 (Cowpox virus [4]): 20 | EC50 (Cowpox virus [5]): 400 nM | Ratio EC50 (Vaccinia virus [6]): 20

Nc1ccn(C[C@@H](CO)OCP(=O)(O)O)c(=O)n1.O.O [CIDOFOVIR]
Activity (Vaccinia virus [9]): 0% | IC50 (HFF): 1900 nM | CC50 at 168 h [1]: > 317 µM | EC50 (Vaccinia virus [2]): 19000 nM | Activity (Cowpox virus [10]): 12 days | Activity (Cowpox virus [11]): 27% | Activity (Cowpox virus [12]): 80% | Activity (Cowpox virus [13]): 0% | Activity (Cowpox virus [14]): 0% | Activity (Cowpox virus [15]): 0% | EC50 (Vaccinia virus [7]): 10000 nM | Activity (Cowpox virus [16]): 0% | Activity (Cowpox virus [17]): 10.5 days

O=c1[nH]c(=O)n([C@H]2C[C@H](O)[C@@H](CO)S2)cc1C(F)(F)F
IC50 (HFF): 140 nM | CC50 at 168 h [1]: > 100 µM | EC50 (Vaccinia virus [2]): 100 nM | Ratio EC50 (Vaccinia virus [3]): 20 | Ratio EC50 (Cowpox virus [4]): 20 | EC50 (Cowpox virus [5]): 80 nM | Ratio EC50 (Vaccinia virus [6]): 20

CC(=O)OC[C@H]1S[C@@H](n2cc(I)c(=O)[nH]c2=O)C[C@@H]1OC(C)=O
IC50 (HFF): 26000 nM | CC50 at 168 h [1]: > 100 µM | EC50 (Vaccinia virus [2]): 900 nM | Ratio EC50 (Vaccinia virus [3]): 20 | Ratio EC50 (Cowpox virus [4]): 20 | EC50 (Cowpox virus [5]): 330 nM | Ratio EC50 (Vaccinia virus [6]): 20

O=c1[nH]c(=O)n([C@H]2C[C@H](O)[C@@H](CO)O2)cc1I [IDOXURIDINE]
EC50 (Vaccinia virus [7]): 2800 nM | EC50 (Vaccinia virus [8]): 17 µM

O=c1[nH]c(=O)n([C@H]2C[C@H](O)[C@@H](CO)S2)cc1I
Activity (Cowpox virus [18]): 0% | Activity (Cowpox virus [19]): 16 days | Activity (Cowpox virus [20]): 0% | Activity (Cowpox virus [21]): 7% | Activity (Vaccinia virus [22]): 0% | IC50 (HFF): 3000 nM | CC50 at 168 h [1]: > 100 µM | Activity (Cowpox virus [23]): 9.8 days | Activity (Cowpox virus [24]): 13% | EC50 (Vaccinia virus [2]): 500 nM | Activity (Cowpox virus [25]): 9.7 days | Activity (Vaccinia virus [26]): 0% | Activity (Cowpox virus [27]): 0% | Activity (Cowpox virus [28]): 14 days | Activity (Cowpox virus [29]): 7% | Activity (Cowpox virus [30]): 27% | Activity (Vaccinia virus [31]): 11% | Activity (Cowpox virus [32]): 14% | Activity (Cowpox virus [33]): 13% | Activity (Cowpox virus [34]): 0% | Activity (Cowpox virus [35]): 13.3 days | Activity (Cowpox virus [36]): 0% | Activity (Cowpox virus [37]): 100% | Activity (Cowpox virus [38]): 87% | Activity (Cowpox virus [39]): 0% | Activity (Vaccinia virus [40]): 7% | Activity (Cowpox virus [13]): 0% | Activity (Cowpox virus [41]): 18% | Activity (Cowpox virus [42]): 0% | EC50 (Vaccinia virus [7]): 40 nM | EC50 (Vaccinia virus [8]): 0.6 µM

O=c1[nH]c(=O)n([C@H]2C[C@H](O)[C@@H](CO)S2)cc1Br
IC50 (HFF): 200 nM | CC50 at 168 h [1]: > 100 µM | EC50 (Vaccinia virus [2]): 90 nM | Ratio EC50 (Vaccinia virus [3]): 20 | Ratio EC50 (Cowpox virus [4]): 20 | EC50 (Cowpox virus [5]): 50 nM | Ratio EC50 (Vaccinia virus [6]): 20
